In PubChem BioAssay (NCI):
Several values for one entry are separate records, joined by “and”; a condition that tells them apart may be missing. Equal entries are not always repeated.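 Dose response: 5 concentrations. Exposure: 48 h. Format: 96-well plates. Endpoint: linear interpolation; highest concentration if not reached. The concentration for 50% growth inhibition is given as GI50. TGI: total growth inhibition.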

system: ACHN renal; assay: NCI anticancer screen, dose series, 48 h

SMILES	TGI	GI50
c1ccc2c(c1)CCC/C2=N\OCC1CO1 (stereo not drawn)	> 100 µM	
CC/C(C)=C1\CCC(CN2CCOCC2)C1=O (stereo not drawn)	19.8 µM	
O=C1OC(CC(=O)c2ccc(Cl)c(Cl)c2)C(Cl)=C1Cl (stereo not drawn)	> 100 µM	
O=[N+]([O-])c1cccc(C2N3CCCCC3[C@@H]3c4[nH]c5ccccc5c4CCN23)c1 (stereo partly drawn)	38.7 µM	
O=S(=O)(N/N=C/c1ccc(/C=N/NS(=O)(=O)c2ccccc2)cc1)c1ccccc1	> 100 µM	
CCOC(=O)C(N)C[S][Sn]([CH3])([CH3])[Cl] (stereo not drawn)	> 100 µM	> 100 µM
COc1cc(Cl)c2c3c(c(C(C)=O)oc13)CCC2	> 100 µM	
NC(=O)C(=Cc1ccc(C(O)P(=O)(O)O)cc1)C(N)=O (stereo not drawn)	> 100 µM	
CC1=C2[C@@H](CC1)[C@]1(C)O[C@@](C3CCCCC3)(C[C@H]1OC(=O)CO)[C@H]2OC(=O)/C=C/c1ccccc1	4.25 µM	0.0331 µM
O=C(O[C@H]1CN[C@H](C#Cc2cc3ncnc(Nc4ccc5c(ccn5Cc5cc(F)ccc5F)c4)c3s2)C1)N1CCOCC1	> 25 µM	0.575 µM
O=c1c(Oc2ccc(F)cc2F)cc2cnc(NC3CCOCC3)nc2n1C1CCS(=O)(=O)CC1	> 25 µM	> 25 µM
NOCC(=O)O	> 100 µM	> 100 µM
CC(=O)c1c(C)[nH]c(-c2nc3ccc(N4CCN(C)CC4)cc3[nH]2)c1-c1ccc(OCC2CCOCC2)cc1	12.4 µM	0.777 µM
CC12OC(c3ccccc3)=CC(c3ccc(Cl)cc3)=C1C(c1ccccc1)=CC2=O (stereo not drawn)	> 100 µM	55.4 µM
Cc1nc2sc(C(=O)Nc3cccc(Cl)c3C)c(N)c2cc1C(=O)/C=C/c1ccccc1	1.09 µM	0.327 µM
CC(C)c1ccc(C(=O)Nc2nc3ccc(O)cc3s2)cc1	> 100 µM	0.304 µM
C=C1C(=O)O[C@H]2[C@H]1CC/C(CNC(=O)c1cc3cc(OC)ccc3[nH]1)=C\CC[C@@]1(C)O[C@@H]21	2.84 µM	1.24 µM
CC(=O)N[C@H]1C=C[C@@H]2/C=C(C)/C=C/[C@@H](C)[C@H]([C@H](C)[C@H](O)[C@@H](C)NC(C)=O)OC(=O)/C=C/C=C(C)\C=C\[C@]2(C)C1	4.65 µM and > 45 µM	0.0186 µM and 0.0045 µM
ClCc1cccc(Cn2cnc3c(NC45CC6CC(CC(C6)C4)C5)ncnc32)c1	30.5 µM	15.4 µM
CC(=O)CC(=O)Nc1ccc2ccccc2c1	> 100 µM	
O=c1c2cc(Cl)ccc2oc2ccc(OCCCCCN3CCCCC3)cc12	11.2 µM	5.28 µM
Cc1cc(I)cc(CN(C)CCCN2CCSCC2)c1O	> 100 µM	41 µM
O=C1c2ccccc2C(=O)N1CCCSc1ccccc1	> 100 µM	
COc1cc(Nc2nccc(Nc3ccc4c(C)[nH]nc4c3)n2)cc(OC)c1OC	> 25 µM	1.9 µM
Nc1c(C(=O)c2ccc(Cl)cc2)sc(Nc2ccccc2)c1-c1nc2ccccc2s1	> 100 µM	1.61 µM
COc1ccc(/C=N\NC(=O)CN2CCN(c3cc4c(cc3F)c(=O)c(C(=O)N/N=C/c3ccc(OC)c(OC)c3)cn4C3CC3)CC2)cc1OC	> 100 µM	> 100 µM

system: BT-549 breast; assay: NCI anticancer screen, dose series, 48 h

SMILES	GI50	TGI
CC1=C2[C@@H](CC1)[C@]1(C)O[C@@](C3CCCCC3)(C[C@H]1OC(=O)CO)[C@H]2OC(=O)/C=C/c1ccccc1	0.328 µM	6.67 µM
O=C(O[C@H]1CN[C@H](C#Cc2cc3ncnc(Nc4ccc5c(ccn5Cc5cc(F)ccc5F)c4)c3s2)C1)N1CCOCC1	4.32 µM	11 µM
O=c1c(Oc2ccc(F)cc2F)cc2cnc(NC3CCOCC3)nc2n1C1CCS(=O)(=O)CC1	> 25 µM	> 25 µM
NOCC(=O)O	> 100 µM	> 100 µM
CC(=O)c1c(C)[nH]c(-c2nc3ccc(N4CCN(C)CC4)cc3[nH]2)c1-c1ccc(OCC2CCOCC2)cc1	3.4 µM	18 µM
CC12OC(c3ccccc3)=CC(c3ccc(Cl)cc3)=C1C(c1ccccc1)=CC2=O (stereo not drawn)	> 100 µM	> 100 µM
Cc1nc2sc(C(=O)Nc3cccc(Cl)c3C)c(N)c2cc1C(=O)/C=C/c1ccccc1	0.525 µM	1.72 µM
CC(C)c1ccc(C(=O)Nc2nc3ccc(O)cc3s2)cc1	2.8 µM	> 100 µM
C=C1C(=O)O[C@H]2[C@H]1CC/C(CNC(=O)c1cc3cc(OC)ccc3[nH]1)=C\CC[C@@]1(C)O[C@@H]21	1.44 µM	3.42 µM
CC(=O)N[C@H]1C=C[C@@H]2/C=C(C)/C=C/[C@@H](C)[C@H]([C@H](C)[C@H](O)[C@@H](C)NC(C)=O)OC(=O)/C=C/C=C(C)\C=C\[C@]2(C)C1	0.023 µM and 0.0045 µM	4.65 µM and > 45 µM
ClCc1cccc(Cn2cnc3c(NC45CC6CC(CC(C6)C4)C5)ncnc32)c1	12.8 µM	29.4 µM
CC(=O)CC(=O)Nc1ccc2ccccc2c1		> 100 µM
O=c1c2cc(Cl)ccc2oc2ccc(OCCCCCN3CCCCC3)cc12	6.26 µM	12.8 µM
Cc1cc(I)cc(CN(C)CCCN2CCSCC2)c1O	14.8 µM	32.6 µM
O=C1c2ccccc2C(=O)N1CCCSc1ccccc1		> 100 µM
COc1cc(Nc2nccc(Nc3ccc4c(C)[nH]nc4c3)n2)cc(OC)c1OC	3.3 µM	11 µM
Nc1c(C(=O)c2ccc(Cl)cc2)sc(Nc2ccccc2)c1-c1nc2ccccc2s1	2.29 µM	19.5 µM
COc1ccc(/C=N\NC(=O)CN2CCN(c3cc4c(cc3F)c(=O)c(C(=O)N/N=C/c3ccc(OC)c(OC)c3)cn4C3CC3)CC2)cc1OC	1.78 µM	3.89 µM

system: HCT-15 colon; assay: NCI anticancer screen, dose series, 48 h

SMILES	TGI	GI50
c1ccc2c(c1)CCC/C2=N\OCC1CO1 (stereo not drawn)	> 100 µM	
CC/C(C)=C1\CCC(CN2CCOCC2)C1=O (stereo not drawn)	26.5 µM	
O=C1OC(CC(=O)c2ccc(Cl)c(Cl)c2)C(Cl)=C1Cl (stereo not drawn)	> 100 µM	
O=[N+]([O-])c1cccc(C2N3CCCCC3[C@@H]3c4[nH]c5ccccc5c4CCN23)c1 (stereo partly drawn)	23.3 µM	
O=S(=O)(N/N=C/c1ccc(/C=N/NS(=O)(=O)c2ccccc2)cc1)c1ccccc1	> 100 µM	
CCOC(=O)C(N)C[S][Sn]([CH3])([CH3])[Cl] (stereo not drawn)	> 100 µM	> 79.1 µM
COc1cc(Cl)c2c3c(c(C(C)=O)oc13)CCC2	> 100 µM	
NC(=O)C(=Cc1ccc(C(O)P(=O)(O)O)cc1)C(N)=O (stereo not drawn)	> 100 µM	
CC1=C2[C@@H](CC1)[C@]1(C)O[C@@](C3CCCCC3)(C[C@H]1OC(=O)CO)[C@H]2OC(=O)/C=C/c1ccccc1	15.7 µM	5.23 µM
O=C(O[C@H]1CN[C@H](C#Cc2cc3ncnc(Nc4ccc5c(ccn5Cc5cc(F)ccc5F)c4)c3s2)C1)N1CCOCC1	17.5 µM	3.55 µM
O=c1c(Oc2ccc(F)cc2F)cc2cnc(NC3CCOCC3)nc2n1C1CCS(=O)(=O)CC1	> 25 µM	> 25 µM
NOCC(=O)O	> 100 µM	> 100 µM
CC(=O)c1c(C)[nH]c(-c2nc3ccc(N4CCN(C)CC4)cc3[nH]2)c1-c1ccc(OCC2CCOCC2)cc1	5.8 µM	0.456 µM
CC12OC(c3ccccc3)=CC(c3ccc(Cl)cc3)=C1C(c1ccccc1)=CC2=O (stereo not drawn)	> 100 µM	26.3 µM
Cc1nc2sc(C(=O)Nc3cccc(Cl)c3C)c(N)c2cc1C(=O)/C=C/c1ccccc1	0.817 µM	0.183 µM
CC(C)c1ccc(C(=O)Nc2nc3ccc(O)cc3s2)cc1	> 100 µM	0.274 µM
C=C1C(=O)O[C@H]2[C@H]1CC/C(CNC(=O)c1cc3cc(OC)ccc3[nH]1)=C\CC[C@@]1(C)O[C@@H]21	2.23 µM	0.825 µM
CC(=O)N[C@H]1C=C[C@@H]2/C=C(C)/C=C/[C@@H](C)[C@H]([C@H](C)[C@H](O)[C@@H](C)NC(C)=O)OC(=O)/C=C/C=C(C)\C=C\[C@]2(C)C1	4.65 µM and > 45 µM	0.0361 µM and 0.00939 µM
ClCc1cccc(Cn2cnc3c(NC45CC6CC(CC(C6)C4)C5)ncnc32)c1	47.5 µM	20.4 µM
CC(=O)CC(=O)Nc1ccc2ccccc2c1	> 100 µM	
O=c1c2cc(Cl)ccc2oc2ccc(OCCCCCN3CCCCC3)cc12	3.45 µM	1.26 µM
Cc1cc(I)cc(CN(C)CCCN2CCSCC2)c1O	37.2 µM	17.8 µM
O=C1c2ccccc2C(=O)N1CCCSc1ccccc1	> 100 µM	
COc1cc(Nc2nccc(Nc3ccc4c(C)[nH]nc4c3)n2)cc(OC)c1OC	> 25 µM	2.84 µM
Nc1c(C(=O)c2ccc(Cl)cc2)sc(Nc2ccccc2)c1-c1nc2ccccc2s1	> 100 µM	2.44 µM
COc1ccc(/C=N\NC(=O)CN2CCN(c3cc4c(cc3F)c(=O)c(C(=O)N/N=C/c3ccc(OC)c(OC)c3)cn4C3CC3)CC2)cc1OC	> 100 µM	> 100 µM

system: HOP-18 NSCLC; assay: NCI anticancer screen, dose series, 48 h

SMILES	TGI [µM]	GI50 [µM]
c1ccc2c(c1)CCC/C2=N\OCC1CO1 (stereo not drawn)	> 100	
CC/C(C)=C1\CCC(CN2CCOCC2)C1=O (stereo not drawn)	34.1	
O=C1OC(CC(=O)c2ccc(Cl)c(Cl)c2)C(Cl)=C1Cl (stereo not drawn)	> 100	
O=[N+]([O-])c1cccc(C2N3CCCCC3[C@@H]3c4[nH]c5ccccc5c4CCN23)c1 (stereo partly drawn)	> 100	
O=S(=O)(N/N=C/c1ccc(/C=N/NS(=O)(=O)c2ccccc2)cc1)c1ccccc1	> 100	
CCOC(=O)C(N)C[S][Sn]([CH3])([CH3])[Cl] (stereo not drawn)	> 100	> 100
COc1cc(Cl)c2c3c(c(C(C)=O)oc13)CCC2	> 100	
NC(=O)C(=Cc1ccc(C(O)P(=O)(O)O)cc1)C(N)=O (stereo not drawn)	> 100	

system: NCI-H522 lung; assay: NCI anticancer screen, dose series, 48 h

SMILES	TGI	GI50
O=C1OC(CC(=O)c2ccc(Cl)c(Cl)c2)C(Cl)=C1Cl (stereo not drawn)	72.6 µM	
CCOC(=O)C(N)C[S][Sn]([CH3])([CH3])[Cl] (stereo not drawn)	38.4 µM	18.4 µM
NC(=O)C(=Cc1ccc(C(O)P(=O)(O)O)cc1)C(N)=O (stereo not drawn)	> 100 µM	
CC1=C2[C@@H](CC1)[C@]1(C)O[C@@](C3CCCCC3)(C[C@H]1OC(=O)CO)[C@H]2OC(=O)/C=C/c1ccccc1	22.5 µM	7.71 µM
O=C(O[C@H]1CN[C@H](C#Cc2cc3ncnc(Nc4ccc5c(ccn5Cc5cc(F)ccc5F)c4)c3s2)C1)N1CCOCC1	4.1 µM	0.147 µM
O=c1c(Oc2ccc(F)cc2F)cc2cnc(NC3CCOCC3)nc2n1C1CCS(=O)(=O)CC1	> 25 µM	> 25 µM
NOCC(=O)O	> 100 µM	25.9 µM
CC(=O)c1c(C)[nH]c(-c2nc3ccc(N4CCN(C)CC4)cc3[nH]2)c1-c1ccc(OCC2CCOCC2)cc1	13.8 µM	0.548 µM
CC12OC(c3ccccc3)=CC(c3ccc(Cl)cc3)=C1C(c1ccccc1)=CC2=O (stereo not drawn)	> 100 µM	72.2 µM
Cc1nc2sc(C(=O)Nc3cccc(Cl)c3C)c(N)c2cc1C(=O)/C=C/c1ccccc1	0.999 µM	0.172 µM
CC(C)c1ccc(C(=O)Nc2nc3ccc(O)cc3s2)cc1	> 100 µM	0.693 µM
C=C1C(=O)O[C@H]2[C@H]1CC/C(CNC(=O)c1cc3cc(OC)ccc3[nH]1)=C\CC[C@@]1(C)O[C@@H]21	2.55 µM	0.7 µM
CC(=O)N[C@H]1C=C[C@@H]2/C=C(C)/C=C/[C@@H](C)[C@H]([C@H](C)[C@H](O)[C@@H](C)NC(C)=O)OC(=O)/C=C/C=C(C)\C=C\[C@]2(C)C1	4.65 µM and 8.99 µM	0.0368 µM and 0.00931 µM
ClCc1cccc(Cn2cnc3c(NC45CC6CC(CC(C6)C4)C5)ncnc32)c1	39.2 µM	17.4 µM
CC(=O)CC(=O)Nc1ccc2ccccc2c1	> 100 µM	
O=c1c2cc(Cl)ccc2oc2ccc(OCCCCCN3CCCCC3)cc12	10.4 µM	3.48 µM
Cc1cc(I)cc(CN(C)CCCN2CCSCC2)c1O	55.9 µM	23.6 µM
O=C1c2ccccc2C(=O)N1CCCSc1ccccc1	> 100 µM	
COc1cc(Nc2nccc(Nc3ccc4c(C)[nH]nc4c3)n2)cc(OC)c1OC	7.18 µM	1.52 µM
